TGI data for six compounds are collected here from PubChem BioAssay (NCI).

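Results reflect a 48-hour exposure of cells in 96-well plates to compound at five concentrations. The concentration for full growth arrest is given as TGI.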

Some test systems named below: EKVX NSCLC; NCI-H226 lung; CCRF-CEM leukemia; UO-31 renal; COLO 205 colon; OVCAR-3 ovarian; NCI-H23 lung; SF-539 CNS; HCT-15 colon; A549 NSCLC; MOLT-4 leukemia.
What all share (assay): NCI tumour cell line growth inhibition, 48 h

Turning to `Cn1c2ccc(F)cc2c2ccc3c(c21)C(=O)C=CC3=O`, the TGI was 37.9 µM in the test with EKVX NSCLC; more than 91.3 µM with NCI-H226 lung; 5.27 µM in the test with CCRF-CEM leukemia; 14.9 µM in the test on UO-31 renal; 21.6 µM in the test with COLO 205 colon; 19.6 µM with OVCAR-3 ovarian. Besides, the TGI in the test on NCI-H23 lung is 31.4 µM; in the test on SF-539 CNS, 35.8 µM; with HCT-15 colon, 28.3 µM; in the test with A549 NSCLC, more than 100 µM; in the test on MOLT-4 leukemia, 13.2 µM.

For `CC(C)NC(=O)OCc1c(COC(=O)NC(C)C)c(-c2ccc[n+](COC(=O)Cc3ccccc3)c2)n2c1CCC2`, the TGI in the test on EKVX NSCLC was more than 100 µM; with NCI-H226 lung, more than 100 µM; with CCRF-CEM leukemia, more than 100 µM; with UO-31 renal, 70.8 µM; in the test with COLO 205 colon it was more than 100 µM; in the test with OVCAR-3 ovarian, more than 100 µM. The TGI in the test with NCI-H23 lung was 69.6 µM; with SF-539 CNS it was more than 100 µM; in the test with HCT-15 colon, more than 100 µM; with A549 NSCLC, more than 100 µM; in the test with MOLT-4 leukemia, more than 100 µM.

As to `O=c1[nH]c(=O)c2ncn(-c3ccc([N+](=O)[O-])cn3)c2[nH]1`, the TGI in the test with EKVX NSCLC, with NCI-H226 lung, in the test on CCRF-CEM leukemia, in the test with UO-31 renal, in the test with COLO 205 colon and in the test with OVCAR-3 ovarian was more than 100 µM in each case. For the same compound, the TGI in the test with NCI-H23 lung, in the test with SF-539 CNS, with HCT-15 colon, in the test on A549 NSCLC and with MOLT-4 leukemia was more than 100 µM in each case.

Turning to `COC(=O)CN(CC(=O)NCCCBr)C1CCCCC1N(CC(=O)OC)CC(=O)OC` (stereo unspecified), the TGI in the test on EKVX NSCLC, in the test on NCI-H226 lung, in the test with CCRF-CEM leukemia, with UO-31 renal, in the test on COLO 205 colon and with OVCAR-3 ovarian was more than 100 µM each time. Besides, the TGI in the test on NCI-H23 lung, with SF-539 CNS, with HCT-15 colon, in the test with A549 NSCLC and in the test on MOLT-4 leukemia was more than 100 µM each time.

For `COc1ccc2c(c1)Oc1cc(O)ccc1[C@H]2c1ccccc1C(=O)NC(C)c1ccccc1` (stereo partly specified), the TGI in the test with EKVX NSCLC amounted to 33.5 µM; in the test on NCI-H226 lung, 38.8 µM; in the test on CCRF-CEM leukemia, 72.7 µM; with UO-31 renal, 25.5 µM; with COLO 205 colon, 31.3 µM; in the test on OVCAR-3 ovarian, 29.4 µM. Also, the TGI with NCI-H23 lung came to 32.5 µM; in the test with SF-539 CNS it was 29.7 µM; in the test with HCT-15 colon, 35.5 µM; with A549 NSCLC it was 31.5 µM; with MOLT-4 leukemia, 64.8 µM.

For the compound `CCC(=O)Nc1cccc(N=Cc2ccc(OC(=O)/C=C\c3ccccc3)cc2)c1`, the TGI in the test on EKVX NSCLC, in the test on NCI-H226 lung, in the test with CCRF-CEM leukemia, in the test on UO-31 renal, in the test on COLO 205 colon and in the test with OVCAR-3 ovarian was more than 75 µM in each case. Also, the TGI with NCI-H23 lung, in the test on SF-539 CNS, with HCT-15 colon, in the test on A549 NSCLC and in the test on MOLT-4 leukemia was more than 75 µM each time.
